# Earlier results as cited in patent publication US8759352B2, “1-(4-ureidobenzoyl)piperazine derivatives” (Merck Sharp & Dohme B.V., priority 2008, dated 2014).
# Columns and labels:
# [1] = test system: vascular smooth muscle cell; conditions: in vitro and in vivo; Blaschke et al. 2004
# [2] = test system: neointima formation; conditions: in vitro and in vivo; Blaschke et al. 2004
# [3] = test system: tumours; conditions: animal model of prostate cancer; Chuu et al. 2006
# [4] = test system: β-amyloid; conditions: Riddell et al. 2007
compound,measurement,setting,value
O=S(=O)(c1ccccc1)N(CC(F)(F)F)c1ccc(C(O)(C(F)(F)F)C(F)(F)F)cc1 [Example T0901317],vascular smooth muscle cell proliferation,[1],inhibit
same,neointima formation following balloon injury,[2],inhibit
same,progression of tumours,[3],delayed progression of tumours
same,deposition of β-amyloid,[4],lower deposition of β-amyloid
same,memory,[4],improve memory
